# Results as given in patent US9867798B2, “Ladostigil therapy for immunomodulation” (priority 2012, dated 2018).
# Columns and labels:
# [1] = system: ChE; assay: Cholinesterase activity in spleen and plasma of mice (Example 4); assay type: in vivo, Balb-C mice; details: 10 mg/kg oral, two hours, ± SD, not significant
# Experimental: Ladostigil 10 mg/kg or saline 1 mg/kg were given by gavage to groups of 6 Balb-C male mice weighing 24-30 gm. The mice were sacrificed 120 min later when ChE inhibition reaches its peak. The spleen was rapidly removed and weighed and blood was centrifuged at 14000 rpm at room temperature for 4 min to provide plasma. Phosphate buffer was added to the spleen at a ratio of 1 mg/ml and the tissue was homogenized at a speed of 24,000 rpm in cold phosphate buffer pH=7 containing 0.1% Triton and centrifuged at 14000 rpm. Aliquots of plasma and the supernatant from the spleen were incubated with acetylthiocholine and dinitro benzoic acid in phosphate buffer pH 7 and the rate of development of the yellow color was measured as described by Ellman et al, (1961). Percent inhibition of ChE activity was calculated by comparison with that of control mice given with saline. Protein concentration was determined by means of Bradford reagent (Bio-RAD, 500-0006) and results represented as activity/mg protein.
# [2] = system: LPS-induced TNF-α, IL-1β and IL-6 in spleen; assay: Cytokines in spleen of mice injected with LPS (Example 4); assay type: in vivo, Balb/c mice
# Experimental: Male Balb/c mice (aged 6-7 weeks, weighing 25-30 gm) were given ladostigil 10 mg/kg by gavage or 1 ml/kg saline followed 15 min later by an intra-peritoneal (i.p.) injection of LPS (10 mg/kg). For measurement of cytokine levels in the spleen and blood the mice were sacrificed 4 h after drug administration, blood collected in heparinized tubes and centrifuged to obtain plasma and the spleen was rapidly removed and weighed. Plasma and spleen were frozen in liquid nitrogen and stored at −80° C. until use.
# For measurement of cytokine levels the tissue was diluted in PBS containing 0.8% NaCl, 0.144% NaHPO4, 0.024% KH2PO4 and protease inhibitor cocktail (Sigma Israel, P8340) and homogenized in an Ultra-TURRAX® homogenizer at a speed of 24,000 rpm, centrifuged at 14000 g for 15 min at 4° C. Cytokines were detected in the supernatant by using ELISA kits for cytokines IL-1β, IL-6, and TNF-α(Biolegend) following the manufacturer's protocol. Each experiment was performed 4 times with 6 replicate measures in each experiment. Protein concentration in each sample was determined with Bradford reagent (Bio-RAD, 500-0006).
# [3] = system: ChE; assay: ChE inhibition in heart or brain of treated rats; assay type: in vivo
# [4] = system: rat heart ischemia/reperfusion; assay: Myocardial ischemic preconditioning, isolated Langendorff hearts of chronically treated rats; assay type: in vivo, Wistar rats; set-up: DP: unit not given beside the values; details: for DP / HR / WI: old rats; for WI: percent of value at end of stabilization
# Experimental: Four groups of male rats of the Wistar strain were used for these studies; a) 3-months old untreated; b) 22 months old, untreated; c) 22 months old treated from the age of 16 months by daily oral administration of ladostigil hemitartrate at a dose of 1 mg/kg/day (hereinafter “low dose”; d) 22 months old treated from the age of 16 months by daily oral administration of ladostigil hemitartrate at a dose of 8.5 mg/kg/day (hereinafter “high dose”).
# On the day of the experiment, rats were injected with i.p. sodium heparin (500 units/kg) followed 30 min later by 80 mg/kg ketamine plus 5 mg/kg xylazine i.p. Bilateral thoracotomy was performed and hearts with a segment of the ascending aorta were rapidly excised, put in ice-cold heparinized saline and mounted onto the Langendorff apparatus. They were perfused with a modified Krebs-Henseleit (KH) buffer as described in Chevion et al. (1993). Heart rate (HR), developed pressure (DP), and its derivatives (+dp/dt and −dp/dt) were recorded. All primary data were processed using a customized version of LabView 7.1 software (National Instruments, Austin, Tex., USA). Work index (WI=Heart Rate×DP) was used as an indicator of heart contractility. The degree of cardio-protection was expressed by the percent (ratio) of two values: WI at the completion of the experiment (at the 120th min) and WI at the completion of the stabilization phase (at the 10th min).
# Experimental protocol: Three basic experimental protocols were employed: (i) continuous (un-interrupted) perfusion: (ii) stabilization (25 min) followed by ischemia and reperfusion (35/60 min) (I/R), and (iii) stabilization (10 min) followed by IPC, ischemia and reperfusion (IPC+I/R). The hemodynamic parameters of the heart were monitored and recorded continuously throughout, during all experimental protocols. Under the I/R protocol, the stabilization phase was extended from 10 to 25 min to compensate for the 15 min of the IPC procedure, which consisted of 3 cycles of (2 min ischemia and 3 min perfusion).
# [5] = 10 mg/kg by gavage + LPS 10 mg/kg i.p., four hours
# [6] = IPC + I/R, high dose 8.5 mg/kg/day
# [7] = IPC + I/R, low dose 1 mg/kg/day
smiles,measurement,setting,value
"C#CCN[C@@H]1CCc2ccc(OC(=O)N(C)CC)cc21 [Ladostigil, R(+)-6-(N-methyl, N-ethyl-carbamoyloxy)-N′-propargyl-1-aminoindan]",Inhibition of ChE in plasma,[1],5.7±2.1%
same,Inhibition of ChE in spleen,[1],7.8±6.4%
same,Reduction of IL-1β levels in spleen,"[2]; 10 mg/kg + LPS, Example 4",28.1%
same,Reduction of IL-6 levels in spleen,"[2]; 10 mg/kg + LPS, Example 4",46.7%
same,Reduction of TNF-α levels in spleen,"[2]; 10 mg/kg + LPS, Example 4",49.6%
same,IL-1β in spleen,[2]; [5],1.37 ± 0.04 ng/mg protein
same,IL-6 in spleen,[2]; [5],179 ± 20 pg/mg protein
same,TNF-α in spleen,[2]; [5],8.3 ± 0.9 pg/mg protein
same,Reduction of elevation of pro-inflammatory cytokines in the spleen,"[2]; oral dose prior to LPS, Example 4 conclusion",28-50%
same,ChE inhibition in the heart or brain,[3]; 1 mg/kg/day,No significant ChE inhibition
same,ChE activity inhibited,[3]; 8.5 mg/kg/day,30%
same,Effect on WI after ischemia and 60 min reperfusion,"[4]; aging rats, I/R without IPC, either dose",no significant effect
same,DP,"[4]; I/R, high dose 8.5 mg/kg/day",14 ± 6
same,HR,"[4]; I/R, high dose 8.5 mg/kg/day",83 ± 8
same,WI,"[4]; I/R, high dose 8.5 mg/kg/day",12 ± 5%
same,DP,"[4]; I/R, low dose 1 mg/kg/day",20 ± 10
same,HR,"[4]; I/R, low dose 1 mg/kg/day",67 ± 15
same,WI,"[4]; I/R, low dose 1 mg/kg/day",13 ± 6%
same,DP,[4]; [6],30 ± 12
same,HR,[4]; [6],92 ± 28
same,WI,"[4]; IPC + I/R, high dose 8.5 mg/kg/day, 8.5 mg/kg/day",26 ± 6%
same,WI,"[4]; IPC + I/R, high dose 8.5 mg/kg/day, listed as ladostigil, 8.5 mg/kg/day",much smaller
same,DP,[4]; [7],68 ± 15
same,HR,[4]; [7],77 ± 8
same,WI,"[4]; IPC + I/R, low dose 1 mg/kg/day, 1 mg/kg/day",53 ± 12%
same,WI,"[4]; IPC + I/R, low dose 1 mg/kg/day, listed as ladostigil, 1 mg/kg/day",> 50%
